Source: PubChem BioAssay AID1918953 (Molecular Pharmacology Branch, DTP, NCI, 2023)
Values joined by “and” are separate entries in the source; they are usually repeats but may differ in a detail not shown here. Identical values can stand only once.

Test system: MDA-MB-231 complex spheroid viability
Test: Anticancer human tumor MDA-MB-231/ATCC cell line growth inhibition;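 note: drug exposure lasted 7 days starting on day 3 of spheroid growth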
Conditions: for viability, T/C: stronger effect = lower value
Procedure, shortened: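 Complex spheroids of tumor cells with HUVEC and human MSCs, exposed to iadademstat combined with other agents. Each agent tested in half-log steps from near clinical Cmax (else 10 microM top), DMSO ≤0.25%.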

[1] = curve of first compound, second compound 0.1 µM
[2] = curve of first compound, second compound 0.316 µM
[3] = curve of first compound, second compound 1 µM
[4] = curve of first compound, second compound 3.16 µM
[5] = curve of first compound, second compound 10 µM
[6] = second compound 0.1 µM, first compound 0.00316 µM
[7] = second compound 0.1 µM, first compound 0.01 µM
[8] = second compound 0.1 µM, first compound 0.0316 µM
[9] = second compound 0.1 µM, first compound 0.1 µM
[10] = second compound 0.316 µM, first compound 0.00316 µM
[11] = second compound 0.316 µM, first compound 0.01 µM
[12] = second compound 0.316 µM, first compound 0.0316 µM
[13] = second compound 0.316 µM, first compound 0.1 µM
[14] = second compound 1 µM, first compound 0.00316 µM
[15] = second compound 1 µM, first compound 0.01 µM
[16] = second compound 1 µM, first compound 0.0316 µM
[17] = second compound 1 µM, first compound 0.1 µM
[18] = second compound 3.16 µM, first compound 0.00316 µM
[19] = second compound 3.16 µM, first compound 0.01 µM
[20] = second compound 3.16 µM, first compound 0.0316 µM
[21] = second compound 3.16 µM, first compound 0.1 µM
[22] = second compound 10 µM, first compound 0.00316 µM
[23] = second compound 10 µM, first compound 0.01 µM
[24] = second compound 10 µM, first compound 0.0316 µM
[25] = second compound 10 µM, first compound 0.1 µM
[26] = second compound 0.1 µM, first compound 0.316 µM
[27] = second compound 0.1 µM, first compound 1 µM
[28] = second compound 0.316 µM, first compound 0.316 µM
[29] = second compound 0.316 µM, first compound 1 µM
[30] = second compound 1 µM, first compound 0.316 µM
[31] = second compound 1 µM, first compound 1 µM
[32] = second compound 3.16 µM, first compound 0.316 µM
[33] = second compound 3.16 µM, first compound 1 µM
[34] = second compound 10 µM, first compound 0.316 µM
[35] = second compound 10 µM, first compound 1 µM

CC(C)CC(NC(=O)CNC(=O)c1cc(Cl)ccc1Cl)B1OC(=O)CC(CC(=O)O)(C(=O)O)O1 (centres undefined) + NC1CC1c1ccc(-c2cccc(O)c2)cc1
IC50 [1]: 4.37 nM
IC50 [2]: 3.09 nM
IC50 [3]: 2.35 nM
IC50 [4]: 2.49 nM
IC50 [5]: 1.01 nM
viability, T/C (second compound 0.1 µM, first compound 0.000316 µM): 85.1%
viability, T/C (second compound 0.1 µM, first compound 0.001 µM): 93.9%
viability, T/C [6]: 62.9%
viability, T/C [7]: 14.6%
viability, T/C [8]: 1.93%
viability, T/C [9]: 1.29%
viability, T/C (second compound 0.316 µM, first compound 0.000316 µM): 67.8%
viability, T/C (second compound 0.316 µM, first compound 0.001 µM): 73.3%
viability, T/C [10]: 48.4%
viability, T/C [11]: 11.8%
viability, T/C [12]: 0.83%
viability, T/C [13]: 0.29%
viability, T/C (second compound 1 µM, first compound 0.000316 µM): 61.7%
viability, T/C (second compound 1 µM, first compound 0.001 µM): 66%
viability, T/C [14]: 44.4%
viability, T/C [15]: 13.8%
viability, T/C [16]: 0.95%
viability, T/C [17]: 0.24%
viability, T/C (second compound 3.16 µM, first compound 0.000316 µM): 61.8%
viability, T/C (second compound 3.16 µM, first compound 0.001 µM): 73.7%
viability, T/C [18]: 43.4%
viability, T/C [19]: 12.7%
viability, T/C [20]: 0.98%
viability, T/C [21]: 0.37%
viability, T/C (second compound 10 µM, first compound 0.000316 µM): 48%
viability, T/C (second compound 10 µM, first compound 0.001 µM): 55.2%
viability, T/C [22]: 30.4%
viability, T/C [23]: 7.98%
viability, T/C [24]: 0.83%
viability, T/C [25]: 0.27%

CC1COCCN1c1cc(C2(S(C)(=N)=O)CC2)nc(-c2ccnc3[nH]ccc23)n1 (centres undefined) + NC1CCC(NC2CC2c2ccccc2)CC1
IC50 [1]: 1180 nM
IC50 [2]: 1460 nM
IC50 [3]: 1530 nM
IC50 [4]: 1180 nM
IC50 [5]: 1010 nM
viability, T/C [8]: 103%
viability, T/C [9]: 99.2%
viability, T/C [26]: 82.5%
viability, T/C [27]: 51.1%
viability, T/C (second compound 0.1 µM, first compound 3.16 µM): 38.1%
viability, T/C (second compound 0.1 µM, first compound 10 µM): 29.4%
viability, T/C [12]: 111%
viability, T/C [13]: 109%
viability, T/C [28]: 81.6%
viability, T/C [29]: 59.2%
viability, T/C (second compound 0.316 µM, first compound 3.16 µM): 34.9%
viability, T/C (second compound 0.316 µM, first compound 10 µM): 29.3%
viability, T/C [16]: 109%
viability, T/C [17]: 100%
viability, T/C [30]: 79.5%
viability, T/C [31]: 56%
viability, T/C (second compound 1 µM, first compound 3.16 µM): 40%
viability, T/C (second compound 1 µM, first compound 10 µM): 30.3%
viability, T/C [20]: 95%
viability, T/C [21]: 87%
viability, T/C [32]: 69.7%
viability, T/C [33]: 53%
viability, T/C (second compound 3.16 µM, first compound 3.16 µM): 37.9%
viability, T/C (second compound 3.16 µM, first compound 10 µM): 33.3%
viability, T/C [24]: 72.4%
viability, T/C [25]: 68.2%
viability, T/C [34]: 59.5%
viability, T/C [35]: 48.1%
viability, T/C (second compound 10 µM, first compound 3.16 µM): 42.4%
viability, T/C (second compound 10 µM, first compound 10 µM): 32.3%

COc1ccc([C@@H](O)c2cc(-c3ncnc4cc(N5CCOCC5)ccc34)c(F)cc2Cl)nn1
viability, T/C (compound 0.0316 µM): 93.7% and 82%
viability, T/C (compound 0.1 µM): 76.6% and 85.5%
viability, T/C (compound 0.316 µM): 53.9% and 64.1%
viability, T/C (compound 1 µM): 39.6% and 43.1%
viability, T/C (compound 3.16 µM): 27.3% and 22.8%
viability, T/C (compound 10 µM): 23.2% and 13.2%
IC50 (curve of compound): 449 nM and 700 nM

O=C(C=Cn1cnc(-c2cc(C(F)(F)F)cc(C(F)(F)F)c2)n1)NNc1cnccn1 + NC1CCC(NC2CC2c2ccccc2)CC1
IC50 [1]: 5.44 nM
IC50 [2]: 4.93 nM
IC50 [3]: 6.56 nM
IC50 [4]: 6.04 nM
IC50 [5]: < 3.16 nM
viability, T/C [6]: 61.7%
viability, T/C [7]: 37%
viability, T/C [8]: 14.9%
viability, T/C [9]: 10.4%
viability, T/C [26]: 9%
viability, T/C [27]: 6.32%
viability, T/C [10]: 58.9%
viability, T/C [11]: 36.2%
viability, T/C [12]: 15%
viability, T/C [13]: 11.4%
viability, T/C [28]: 7.56%
viability, T/C [29]: 5.07%
viability, T/C [14]: 64.6%
viability, T/C [15]: 41.7%
viability, T/C [16]: 15.4%
viability, T/C [17]: 11.4%
viability, T/C [30]: 8.75%
viability, T/C [31]: 6.54%
viability, T/C [18]: 56%
viability, T/C [19]: 45.4%
viability, T/C [20]: 13.9%
viability, T/C [21]: 11.2%
viability, T/C [32]: 8.03%
viability, T/C [33]: 6.06%
viability, T/C [22]: 49.2%
viability, T/C [23]: 34.5%
viability, T/C [24]: 14%
viability, T/C [25]: 9.12%
viability, T/C [34]: 7.43%
viability, T/C [35]: 5.83%

Nc1ccccc1NC(=O)c1ccc(CNC(=O)OCc2cccnc2)cc1
viability, T/C (compound 0.00949 µM): 81.5% and 86.7%
viability, T/C (compound 0.03 µM): 56.5% and 52.2%
viability, T/C (compound 0.0949 µM): 39.4% and 21.1%
viability, T/C (compound 0.3 µM): 28.1% and 12.2%
viability, T/C (compound 0.949 µM): 15.4% and 4.07%
viability, T/C (compound 3 µM): 3.56% and 0.18%
IC50 (curve of compound): 53.2 nM and 31.4 nM
